Our source for the Ki and Activity values is ChEMBL document CHEMBL1153815, “Mapping the ribonucleolytic active site of bovine seminal ribonuclease. The binding of pyrimidinyl phosphonucleotide inhibitors” (Eur J Med Chem, 2009).

Experiment [1] addresses T1, Ribonuclease pancreatic (Bos taurus, UniProt P61823).
T1 sequence (P61823 whole entry): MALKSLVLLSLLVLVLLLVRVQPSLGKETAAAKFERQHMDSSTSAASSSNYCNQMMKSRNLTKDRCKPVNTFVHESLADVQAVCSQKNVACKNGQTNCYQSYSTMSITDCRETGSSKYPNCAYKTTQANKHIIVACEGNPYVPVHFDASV
Nature of the experiment: Inhibition of bovine pancreatic ribonuclease A assessed as enzyme activity by spectrophotometric method pH 6.

The test system of experiment [2] is Mus musculus. Nature of the experiment: Inhibition of aspermatogenic activity of bovine seminal ribonuclease in mouse ICR assessed as width of spermatogenic layer at 1:100 ratio of BS-Rnase+compound after 10 days administered once into left testes. The experiment is classed as functional, organism-based.
For experiment [3], the system named is Mus musculus. As to the kind of experiment: Inhibition of aspermatogenic activity of bovine seminal ribonuclease in mouse ICR assessed as diameter of somniferous tubule at 1:1 ratio of BS-Rnase+compound after 10 days administered once into left testes. The experiment is classed as functional, organism-based.
In experiment [4] the test system is Mus musculus. As to the kind of experiment: Inhibition of aspermatogenic activity of bovine seminal ribonuclease in mouse ICR assessed as diameter of somniferous tubule at 1:100 ratio of BS-Rnase+compound after 10 days administered once into left testes. The experiment is classed as functional, organism-based.
The test system of experiment [5] is Mus musculus. As to the kind of experiment: Inhibition of aspermatogenic activity of bovine seminal ribonuclease in mouse ICR assessed as width of spermatogenic layer at 1:1 ratio of BS-Rnase+compound after 10 days administered once into left testes. The experiment is classed as functional, organism-based.
Experiment [6] has as its system Mus musculus. As to the kind of experiment: Inhibition of aspermatogenic activity of bovine seminal ribonuclease in mouse ICR assessed as weight of the testes at 1:1 ratio of BS-Rnase+compound after 10 days administered once into left testes. It counts as functional, organism-based. Particulars: Testis.
For experiment [7], the system named is Mus musculus. As to the kind of experiment: Inhibition of aspermatogenic activity of bovine seminal ribonuclease in mouse ICR assessed as weight of the testes at 1:100 ratio of BS-Rnase+compound after 10 days administered once into left testes. Particulars: Testis. It counts as functional, organism-based.
For experiment [8], the target named is T2, Seminal ribonuclease (Bos taurus, UniProt P00669).
T2 sequence (P00669 whole entry): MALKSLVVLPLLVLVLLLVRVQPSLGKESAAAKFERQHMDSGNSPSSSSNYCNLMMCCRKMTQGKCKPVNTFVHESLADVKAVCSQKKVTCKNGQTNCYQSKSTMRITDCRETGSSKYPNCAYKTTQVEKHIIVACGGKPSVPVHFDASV
Nature of the experiment: Inhibition of bovine seminal ribonuclease assessed as enzyme activity by spectrophotometric method at pH 6.

For experiment [9], the system named is Mus musculus. As to the kind of experiment: Inhibition of aspermatogenic activity of bovine […] assessed as weight of the testes at 1:1 ratio of BS-Rnase+compound after 10 days administered once into left testes. The settings on record: Testis. It counts as functional, organism-based.
The subject of experiment [10] is Mus musculus. As to the kind of experiment: Inhibition of aspermatogenic activity of bovine […] assessed as width of spermatogenic layer at 1:100 ratio of BS-Rnase+compound after 10 days administered once into left testes. It counts as functional, organism-based.
Experiment [11] has as its system Mus musculus. As to the kind of experiment: Inhibition of aspermatogenic activity of bovine […] assessed as diameter of somniferous tubule at 1:100 ratio of BS-Rnase+compound after 10 days administered once into left testes. The experiment is classed as functional, organism-based.

Calls of active or inactive are those of the source. The rule behind the calls is not given here.

A word on the Ki: it is a dissociation constant, usually derived from enzyme kinetics or from competition with a known ligand. Regarding `O=c1ccn([C@@H]2O[C@H](CO)[C@@H](O)[C@H]2OP(=O)(O)O)c(=O)[nH]1`, the Ki in experiment [1] turned out to be 11.6 µM.

Regarding `Nc1ccn([C@@H]2O[C@H](CO)[C@@H](OP(=O)(O)O)[C@H]2O)c(=O)n1`, the result in [2], in [4] and in [7] was inactive. In addition, the outcome in experiment [3], in experiment [5] and in experiment [6] was Active. In addition, the Ki in [1] came out at 20.1 µM.

For `O=c1ccn([C@@H]2O[C@H](CO)[C@@H](OP(=O)(O)O)[C@H]2O)c(=O)[nH]1`, the Ki in experiment [1] came to 78.5 µM.

Take `O=c1ccn([C@@H]2O[C@H](COP(=O)(O)OP(=O)(O)O)[C@@H](O)[C@H]2O)c(=O)[nH]1` [URIDINE_DIPHOSPHATE]: in [1], the Ki amounted to 647 µM.

Regarding `Nc1ccn([C@@H]2O[C@H](COP(=O)(O)O)[C@@H](O)[C@H]2O)c(=O)n1`, the Ki is 1560 µM in experiment [8] and 844 µM in experiment [1]. Also, the outcome in experiment [2], in experiment [4] and in experiment [7] was inactive. Further, the outcome in experiment [9], in [10] and in experiment [11] was Active.
